In this experiment the target is Ras-related protein Rab-2A (Canis lupus familiaris, UniProt P61105). As to the kind of experiment: fluorescent GTP competition at wildtype Rab2A – biochemical, multiplex dose response, Bodipy-FL-GTP, flow cytometry, SAR follow-up (AID 2033).
Setting [1] is: inactive by the depositor's call.

SMILES strings stand for the structures.

Sequence of Ras-related protein Rab-2A (P61105 whole entry): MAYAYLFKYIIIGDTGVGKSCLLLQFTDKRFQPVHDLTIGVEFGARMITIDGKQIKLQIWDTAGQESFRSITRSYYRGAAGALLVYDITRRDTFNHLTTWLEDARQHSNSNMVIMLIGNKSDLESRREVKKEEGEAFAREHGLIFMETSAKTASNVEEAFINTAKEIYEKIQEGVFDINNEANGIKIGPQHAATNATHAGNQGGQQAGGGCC

The term EC50 denotes the concentration at which the effect is half-maximal. Lower therefore signals a more potent agent. The compound `COc1ccc(-c2noc(CCC(=O)N3CCN(c4ccccc4Cl)CC3)n2)cc1` [1-[4-(2-chlorophenyl)piperazin-1-yl]-3-[3-(4-methoxyphenyl)-1,2,4-oxadiazol-5-yl]propan-1-one] returned an EC50 under setting [1] of 2.39 µM.
With `Cc1ccc(C)c(N2CCN(C(=O)CCc3nc(-c4ccc(Cl)cc4)no3)CC2)c1` [UNM-0000306083], a half-maximal effect under setting [1] (EC50) was put at 1.79 µM.
Same read-out and setting: with `COc1ccc(-c2noc(CCC(=O)N3CCN(c4ccc(C)cc4)CC3)n2)cc1` [3-[3-(4-methoxyphenyl)-1,2,4-oxadiazol-5-yl]-1-[4-(4-methylphenyl)piperazin-1-yl]propan-1-one] the figure was 0.708 µM.
Regarding `COc1ccc(-c2noc(CCC(=O)N3CCN(c4ccccc4)CC3)n2)cc1` [3-[3-(4-methoxyphenyl)-1,2,4-oxadiazol-5-yl]-1-(4-phenylpiperazin-1-yl)propan-1-one], the EC50 was greater than 30 µM.
`Cc1cccc(-c2noc(CCC(=O)N3CCN(c4cc(C)ccc4C)CC3)n2)c1` [1-[4-(2,5-dimethylphenyl)piperazin-1-yl]-3-[3-(3-methylphenyl)-1,2,4-oxadiazol-5-yl]propan-1-one] yielded an EC50 under setting [1] of 1.32 µM.
For the compound `COc1ccc(-c2noc(CCCCC(=O)N3CCN(c4cc(C)ccc4C)CC3)n2)cc1` [1-[4-(2,5-dimethylphenyl)-1-piperazinyl]-5-[3-(4-methoxyphenyl)-1,2,4-oxadiazol-5-yl]-1-pentanone], the EC50 was greater than 30 µM.
Under setting [1], `Cc1ccc(-c2noc(CCC(=O)N3CCN(c4cc(C)ccc4C)CC3)n2)cc1` [1-[4-(2,5-dimethylphenyl)-1-piperazinyl]-3-[3-(4-methylphenyl)-1,2,4-oxadiazol-5-yl]-1-propanone] showed a half-maximal effective concentration (EC50) of 4.14 µM.
On to `COc1ccc(-c2noc(CCC(=O)N3CCN(c4ccc(C(F)(F)F)cc4)CC3)n2)cc1` [3-[3-(4-methoxyphenyl)-1,2,4-oxadiazol-5-yl]-1-[4-[4-(trifluoromethyl)phenyl]piperazin-1-yl]propan-1-one], for which the EC50 is greater than 30 µM.
Compound `COc1ccc(-c2noc(CCC(=O)N3CCN(c4ccccc4F)CC3)n2)cc1` [1-[4-(2-fluorophenyl)piperazin-1-yl]-3-[3-(4-methoxyphenyl)-1,2,4-oxadiazol-5-yl]propan-1-one] came in with a concentration for a half-maximal effect (EC50) under setting [1] of 0.733 µM.
Same read-out and setting: next, `COc1ccc(-c2ccc(CCC(=O)N3CCN(c4cc(C)ccc4C)CC3)o2)cc1` [KUC103447N]: 15.1 µM; `COc1ccc(-c2noc(CCC(=O)N3CCN(c4ccccc4C(F)(F)F)CC3)n2)cc1` [UNM-0000306082]: 2.1 µM.
Compound `COc1ccc(-c2noc(CC(=O)N3CCN(c4cc(C)ccc4C)CC3)n2)cc1` [1-[4-(2,5-dimethylphenyl)piperazin-1-yl]-2-[3-(4-methoxyphenyl)-1,2,4-oxadiazol-5-yl]ethanone] gave an EC50 greater than 30 µM.
In turn, `COc1ccc(-c2noc(CCC(=O)N3CCN(c4cccc(C(F)(F)F)c4)CC3)n2)cc1` [1-{3-[3-(4-methoxyphenyl)-1,2,4-oxadiazol-5-yl]propanoyl}-4-[3-(trifluoromethyl)phenyl]piperazine] registered a 50% effective concentration (EC50) greater than 30 µM.
Still for that read-out and setting: with `Cc1ccc(C)c(N2CCN(C(=O)CCc3nc(-c4cccc(F)c4)no3)CC2)c1` [KUC103366N] the figure was greater than 30 µM; with `COc1ccc(-c2noc(CCC(=O)N3CCN(c4cccc(Br)c4)CC3)n2)cc1` [1-[4-(3-bromophenyl)-1-piperazinyl]-3-[3-(4-methoxyphenyl)-1,2,4-oxadiazol-5-yl]-1-propanone], greater than 30 µM.
In turn, `COc1ccc(-c2noc(CCC(=O)N3CCN(c4ccc(OC)cc4)CC3)n2)cc1` [3-[3-(4-methoxyphenyl)-1,2,4-oxadiazol-5-yl]-1-[4-(4-methoxyphenyl)piperazin-1-yl]propan-1-one] came in with an EC50 greater than 30 µM.
Same read-out and setting: with `Cc1ccc(C)c(N2CCN(C(=O)CCc3nc(-c4ccc(N(C)C)cc4)no3)CC2)c1` [KUC103409N] the figure was greater than 30 µM; with `COc1ccc(-c2cc(CCC(=O)N3CCN(c4cc(C)ccc4C)CC3)[nH]n2)cc1` [UNM-0000306150], greater than 30 µM.
The same measure, in the same setting: next, `COc1ccc(-c2noc(CCC(=O)N3CCN(c4ccc(F)cc4)CC3)n2)cc1` [KUC103398N]: greater than 30 µM.
Under setting [1], `COc1ccc(-c2cc(CCC(=O)N3CCN(c4cc(C)ccc4C)CC3)on2)cc1` [1-[4-(2,5-dimethylphenyl)piperazin-1-yl]-3-[3-(4-methoxyphenyl)-1,2-oxazol-5-yl]propan-1-one] returned an EC50 of 2.54 µM.
Consider `Cc1ccc(C)c(N2CCN(C(=O)CCc3nc(-c4ccccc4F)no3)CC2)c1` [KUC103401N], for which the response under setting [1] was half-maximal at 0.908 µM (EC50).
Still for that read-out and setting: next, `COc1cccc(-c2noc(CCC(=O)N3CCN(c4cc(C)ccc4C)CC3)n2)c1`: 3.9 µM.
Same read-out and setting: next, `COc1ccc(-c2noc(CCC(=O)N3CCN(c4cccc(C)c4C)CC3)n2)cc1` [1-[4-(2,3-dimethylphenyl)-1-piperazinyl]-3-[3-(4-methoxyphenyl)-1,2,4-oxadiazol-5-yl]-1-propanone]: 2.31 µM; `COc1ccc(-c2noc(CCC(=O)N3CCN(c4cccc(Cl)c4)CC3)n2)cc1`: 8.53 µM.
The same measure, in the same setting: with `Cc1ccc(C)c(N2CCN(C(=O)CCc3nc(-c4ccc(F)cc4)no3)CC2)c1` [KUC103364N] the figure was 0.335 µM; with `Cc1ccc(C)c(N2CCN(C(=O)CCc3nc(-c4ccccc4)no3)CC2)c1` [UNM-0000306070], 0.841 µM.
For the compound `Cc1ccc(C)c(N2CCN(C(=O)CCc3nc(-c4cccc(C(F)(F)F)c4)no3)CC2)c1` [KUC103380N], the concentration giving a half-maximal response (EC50) is greater than 30 µM.
For the compound `Cc1ccc(C)c(N2CCN(C(=O)CCc3nc(-c4ccccc4C)no3)CC2)c1`, the response under setting [1] was half-maximal at 1.67 µM (EC50).
Same read-out and setting: next, `Cc1ccc(C)c(N2CCN(C(=O)CCc3nc(-c4cccc(Br)c4)no3)CC2)c1` [KUC103367N]: 3.66 µM; `COc1ccc(-c2noc(CCC(=O)N3CCC(c4cc(C)ccc4C)CC3)n2)cc1` [KUC103432N]: 2.51 µM; `COc1ccc(-c2noc(CCC(=O)N3CCN(c4cc(C)ccc4C)CC3)n2)cc1` [1-[4-(2,5-dimethylphenyl)-1-piperazinyl]-3-[3-(4-methoxyphenyl)-1,2,4-oxadiazol-5-yl]-1-propanone]: 2.49 µM.
On to `COc1ccccc1-c1noc(CCC(=O)N2CCN(c3cc(C)ccc3C)CC2)n1` [UNM-0000306071], for which the EC50 was greater than 30 µM.
On the same count and under the same terms, next, `Cc1ccc(C)c(N2CCN(C(=O)CCc3nc(-c4ccc(C(F)(F)F)cc4)no3)CC2)c1` [1-[4-(2,5-dimethylphenyl)-1-piperazinyl]-3-[3-[4-(trifluoromethyl)phenyl]-1,2,4-oxadiazol-5-yl]-1-propanone]: greater than 30 µM.
Compound `COc1ccc(-c2ccc(CCC(=O)N3CCN(c4cc(C)ccc4C)CC3)[nH]2)cc1` [1-[4-(2,5-dimethylphenyl)piperazin-1-yl]-3-[5-(4-methoxyphenyl)-1H-pyrrol-2-yl]propan-1-one] registered an EC50 under setting [1] of 5.22 µM.
`COc1ccc(-c2ccc(CCC(=O)N3CCN(c4cc(C)ccc4C)CC3)s2)cc1` yielded an EC50 under setting [1] of 2.48 µM.
On the same count and under the same terms, with `Cc1ccc(C)c(N2CCN(C(=O)CCc3nc(-c4ccc(Br)cc4)no3)CC2)c1` [UNM-0000306072] the figure was 2.94 µM.
In the case of `COc1ccc(-c2noc(CCC(=O)N3CCN(c4ccc(Br)cc4)CC3)n2)cc1` [1-[4-(4-bromophenyl)piperazin-1-yl]-3-[3-(4-methoxyphenyl)-1,2,4-oxadiazol-5-yl]propan-1-one], the EC50 was greater than 30 µM.
In the case of `COc1ccc(-c2noc(CCC(=O)N3CCN(c4ccccc4Br)CC3)n2)cc1` [KUC103370N], the EC50 under setting [1] amounted to 3.22 µM.
`COc1ccc(-c2coc(CCC(=O)N3CCN(c4cc(C)ccc4C)CC3)n2)cc1` [1-[4-(2,5-dimethylphenyl)piperazin-1-yl]-3-[4-(4-methoxyphenyl)-1,3-oxazol-2-yl]propan-1-one]: the EC50 is greater than 30 µM.
On to `COc1ccc(-c2noc(CCCC(=O)N3CCN(c4cc(C)ccc4C)CC3)n2)cc1` [KUC103353N], for which a half-maximal effect under setting [1] (EC50) was put at 16.2 µM.
`COc1ccc(-c2noc(CCC(=O)N3CCN(c4ccccc4OC)CC3)n2)cc1` [3-[3-(4-methoxyphenyl)-1,2,4-oxadiazol-5-yl]-1-[4-(2-methoxyphenyl)-1-piperazinyl]-1-propanone]: the midpoint of the response under setting [1], the EC50, lay at 1.32 µM.
Compound `Cc1ccc(C)c(N2CCN(C(=O)CCc3nc(-c4ccccc4Cl)no3)CC2)c1` [3-[3-(2-chlorophenyl)-1,2,4-oxadiazol-5-yl]-1-[4-(2,5-dimethylphenyl)-1-piperazinyl]-1-propanone] gave an EC50 greater than 30 µM.
Consider `COc1ccc(-c2cccc(CCC(=O)N3CCN(c4cc(C)ccc4C)CC3)c2)cc1` [UNM-0000306127], for which the EC50 is greater than 30 µM.
For `Cc1ccc(C)c(N2CCN(C(=O)CCc3nc(-c4cccc(Cl)c4)no3)CC2)c1` [UNM-0000306086], under setting [1], the EC50 was 2.9 µM.
As to `COc1ccc(-c2noc(CCC(=O)N3CCN(c4ccccc4C)CC3)n2)cc1`, the EC50 under setting [1] was 2.54 µM.
`COc1ccc(-c2noc(CCC(=O)N3CCN(c4cccc(C)c4)CC3)n2)cc1` [UNM-0000306125]: the EC50 is greater than 30 µM.
Regarding `Cc1ccc(C)c(N2CCN(C(=O)CCc3nc(-c4ccccc4C(F)(F)F)no3)CC2)c1`, the EC50 is greater than 30 µM.
For `COc1ccc(-c2noc(CCC(=O)N3CCN(c4ccc(Cl)cc4)CC3)n2)cc1` [UNM-0000306121], the half-maximal effective concentration (EC50) is greater than 30 µM.
Take `COc1ccc(-c2noc(CCC(=O)N3CCN(c4cccc(OC)c4)CC3)n2)cc1` [KUC103349N]: the midpoint of the response under setting [1], the EC50, lay at 6.46 µM.
Consider `COc1ccc(-c2noc(CCC(=O)N3CCN(c4cccc(F)c4)CC3)n2)cc1` [1-[4-(3-fluorophenyl)piperazin-1-yl]-3-[3-(4-methoxyphenyl)-1,2,4-oxadiazol-5-yl]propan-1-one], for which the EC50 was greater than 30 µM.
Under setting [1], `Cc1ccc(C)c(N2CCN(C(=O)CCc3nc(-c4ccccc4Br)no3)CC2)c1` [3-[3-(2-bromophenyl)-1,2,4-oxadiazol-5-yl]-1-[4-(2,5-dimethylphenyl)-1-piperazinyl]-1-propanone] returned an EC50 of 3.13 µM.

Values taken from BindingDB's records for doi:10.7270/Q25H7DQC (Nmmlsc, 2009).
